The test system of one data set is human PBMC. The experiment in a line: Cytotoxicity assay in uninfected PHA stimulated human PBMC (trypan blue dye-exclusion). Type of data set: cell-based. As to conditions: 6 days, cell viability. Here is the method:
(§1) Cells. Human peripheral blood mononuclear cells (PBMC) from healthy HIV-1 seronegative and hepatitis B virus seronegative donors were isolated by Ficoll-Hypaque discontinuous gradient centrifugation at 1,000×g for 30 minutes, washed twice in phosphate-buffered saline (pH 7.2; PBS), and pelleted at 300×g for 10 minutes. Before infection, the cells were stimulated by phytohemagglutinin […] at a concentration of 6 μg/ml for three days in RPMI 1640 medium supplemented with 15% heat-inactivated fetal calf serum, 1.5 mM L-glutamine, penicillin (100 U/ml), streptomycin (100 μg/ml), and 4 mM sodium bicarbonate buffer.
Cytotoxicity assay. The drugs were evaluated for their potential toxic affects on uninfected PHA stimulated human PBMC. Flasks were seeded so that the final cell concentration was 2×10^5 cells/mi. The cells were cultured with and without drug for 6 days, at which time aliquots were counted for cell viability, as assessed by the trypan blue dye-exclusion method using a hemacytometer. The median inhibitory concentration (IC50) was calculated using the median effect method (Chou et al, Elsevier-Biosoft, Elsevier Science Publishers, Cambridge, U.K., 1985; Chou et al, Adv. Enz. Regul. 22, 27-55, 1984). The results are reported as IC50 PBMC below.

The next data set has as its system HIV-1 (strain LAV-1). The experiment in a line: Inhibition of virus replication in human PBMC (supernatant reverse transcriptase activity). Type of data set: cell-based. Conditions: 50% inhibition of RT activity vs untreated controls, six days after infection. Here is the method:
as §1
Viruses. HIV-1 (strain LAV-1) was obtained from Dr. P. Feorino (Centers for Disease Control, Atlanta, Ga.). […]
PBMC. […] The mean reverse transcriptase (RT) activity of the inocula was 50,000 decompositions per min/ml corresponding to about 100 TCID50, as determined by Groopman et al. (Groopman et al, AIDS Res. Human Retro. 3, 71-85, 1987. The drugs at twice their final concentration in 5 ml of RPMI 1640 medium, supplemented as described above, were added to the cultures. Uninfected and untreated PBMC at equivalent cell densities were grown in parallel as controls. The cultures were maintained in a humidified 5% CO2 -95% air incubator at 37° C. for six days after infection, at which point all cultures were sampled for supernatant reverse transcriptase (RT) activity. […]
The RT assay was performed in 96-well microtiter plates, as described by Spira et al. (Spira et al, J. Clin. Microbiol. 22, 97-99, 1987). […] Four ml of scintillation fluid (Econofluor, NEN Research Products, Boston, Mass.) were added and the amount of radioactivity in each sample was determined using a Packard Tri-Carb liquid scintillation analyzer (model 2,000CA). […]

The subject of a further data set is Vero cells. The experiment in a line: Cytotoxicity assay in Vero cells. Type of data set: cell-based.
The subject of a further data set is HSV-1. In words: Plaque reduction assay for herpes simplex in Vero cells. Type of data set: cell-based. The source says: Cell culture assays for herpes simplex.
Viruses. (HSV-1) Mycoplasma-free Vero cells, obtained from Flow Laboratory (McLean, Va.), were used for plaque assays.
On the technique in general: In a plaque reduction assay, fewer plaques than in the control indicate reduced infectivity or spread.

For data set [1] the following is noted: compound abandoned; cited from earlier work.
The subject of a further data set is HIV. As to conditions: Chemical and Engineering News, December 1986; cited from earlier work.
A further data set has as its system herpes virus. As to conditions: JP 64-38,022; cited from earlier work.
Data set [2] can be described thus: Storage stability / shelf-life. It is filed as physicochemical.
A further data set deals with cells. As to conditions: background statement; cited from earlier work.

Usually IC50 stands for the midpoint of a concentration-inhibition curve. Higher therefore signals weaker potency in that assay. As a reminder, the EC50 is the concentration giving half of the maximal effect. With “(Na/K)6 Nb4 W2 O19 !.nH2 O [Na/K!6 Nb4 W2 O19 !]”, the 50% inhibitory concentration (IC50) with human PBMC and in the data set with Vero cells was greater than 100 µM in each case. Also, the EC50 is 0.073 µM in the data set with HIV-1 (strain LAV-1) and greater than 100 µM in the data set with HSV-1.

silicotungstate acid [H4 SiW12 O40]: the “toxicity in higher animals” value in [1] is reported as “toxicity in higher animals”. Also, the “activity against HIV” value in the data set on HIV is reported as “has activity against HIV”.

For K5 BW12 O40, the “activity against herpes virus” value in the data set with herpes virus is recorded as “activity against herpes virus”.

Consider (Me4 N)9 P2 Nb3 W15 O62 !.15H2 O.CH3 CN, for which, in data set [2], the stability on storage result is “stable on storage”.

Turning to Me3 NH!8 Si2 W18 Nb6 O77 !, the IC50 in the data set on human PBMC and in the data set on Vero cells was greater than 100 µM in each case. The results for the EC50 with HIV-1 (strain LAV-1) and with HSV-1 were 0.081 µM and greater than 1 µM, respectively.

“(Me4 N/Na/K)5 Nb3 W3 O19 !.nH2 O [Me4 N/Na/K!5 Nb3 W3 O19 !]”: the half-inhibitory concentration (IC50) with human PBMC and in the data set with Vero cells was greater than 100 µM throughout. Moreover, the 50% effective concentration (EC50) with HIV-1 (strain LAV-1) was 8.56 µM; in the data set with HSV-1, 5.66 µM.

Turning to K7 PW10 Ti2 O40, the “activity against herpes virus” value with herpes virus is given as “activity against herpes virus”.

Turning to `Cc1cn([C@H]2C[C@H](N=[N+]=[N-])[C@@H](CO)O2)c(=O)[nH]c1=O` [AZT], the toxicity to cells result in the data set on cells is recorded as “high toxicity to cells”.
